“Also recorded” adds a separate entry of the source. Square brackets hold non-standard residues; d marks the D form. Ends that are not written are not given here. pGlu = O=C1CC[C@@H](C(=O)O)N1
Key:
panelists [1] = experiment: Return to baseline protocol: salt reference re-tasted at 1 minute intervals; type: in vivo, human; details: for Time needed to return to baseline as the concentration increases: 0.1 to 40.0/50.0 ppb
Method: After evaluating the sample for salt and other perceptions (step 3 above), each panelist re-tasted the salt reference (5.0 intensity) at 1 minute intervals until their perception of the saltiness intensity of the reference returned to 5.0. Each panelist recorded salt intensity at each interval and took qualitative notes on other perceptions seen in aftertaste. Attribute Perception Protocol • The panelists evaluated each sample using the following procedure • Descriptive Profiles (flavor and chemical feeling factors) of 5 levels of salt enhancing solutions • Individual data was collected for the flavor and chemical feeling factors of the product in-mouth • Increased Salt Perception Protocol • Each panelist tasted salt 5 reference (0.35% salt solution)—to ground themselves on salt intensity of 5.0. • Each panelist tasted the test sample (0.1 ppb, 0.5 ppb, 1.0 ppb, 10.0 ppb or 40.0/50.0 ppb all in 0.2% NaCl solution: only one per session) • Each panelist then re-tasted the salt 5 reference and rated it for salt intensity as well as any other basic taste, chemical feeling factor, or aromatic perceived. This captured any increased salt perception indicated by the test sample as well as any other perceptions present. • Return to Baseline Protocol • After evaluating the sample for salt & other perceptions, panelists re-tasted the salt 5 reference at 1 minute intervals until their perception of the salt 5 saltiness intensity had returned to 5.0. Each panelist recorded their salt intensity at each interval and took qualitative notes on other perceptions seen in aftertaste. Sample Preparation

panelists [2] = experiment: Descriptive profile of umami enhancer UE-30 in solution, in-mouth (Example 5); type: in vivo, human; details: for Astringent, in-mouth perception / Bitter, in-mouth perception / Metallic, in-mouth perception / Mineral/Flinty, in-mouth perception / Numbing, in-mouth perception / Salt, in-mouth perception / Sour, in-mouth perception / Sweet, in-mouth perception / Umami FF, in-mouth perception / Umami/Brothy, in-mouth perception: mean score, 15-point scale
Method: Descriptive attributes (e.g., taste, flavor and chemical feeling factors) of four use levels of a pGlu-Val-Cys (UE-30) flavor composition peptide was determined. The four use levels were as follows: 1.0 ppb, 10.0 ppb, 100.0 ppb and 1000.0 ppb.
Data was collected for the attributes of the product in-mouth for the use levels according to the following protocol: • The samples were analyzed for flavor and aftertaste by six-nine members of a panel, trained and experienced in appearance, flavor and texture evaluation using the Spectrum™ method. Samples were evaluated across multiple panel sessions. • The strength of each attribute was rated on a 15-point scale, where 0=none and 15=very strong. • This scale incorporates the ability to use tenths of a point and therefore has the potential of 150 scale differentiations. • The scale may be expanded beyond 15 points to include extreme ratings if necessary. Attribute Perception Protocol • The panelists evaluated each sample using the following procedure • Descriptive Profiles (Flavor and Chemical Feeling Factors) of 4 levels of UE-30 (umami enhancer) • Individual data (1 replication) was collected for the flavor and chemical feeling factors of the product in-mouth Sample Preparation
The 01, 10, 100 and 1000 ppb test samples of the flavor composition peptide was prepared in water as described in the table 19.
The panelists evaluated each sample for the attributes described in table 20.

[3] = Salty taste of peanut butter with added peptide; type: in vivo; details: no salt reduction, 267 ppb peptide
Method: All Ingredients were added into the mixing bowl and milled on the Retsch mill (model RM200) for a total of 30 minutes for two 15 minute intervals. After 15 minutes, the walls of the bowl were scraped with a spatula and then, milling was resumed.
Three batches of peanut butter were made: a control with 100% NaCl (0.05 g), a sample with 100% NaCl (0.05 g) and 267 ppb pGlu-Val-Leu, and a sample with 50% NaCl reduction (0.025 g) and with 267 ppb pGlu-Val-Leu.
A 1000 ppm stock of pGlu-Val-Leu in salt was made to be added to the peanut butter.

panel of trained tasters = experiment: Saltiness of 25% sodium-reduced food products with peptides, panel of trained tasters; type: in vivo, human; details: for Saltiness compared to control / Saltiness/flavor compared to control: 10 ppb each, n=4; for Saltiness/flavor compared to control: control 350 mg
Method: Food product compositions were prepared by admixing flavor composition peptide(s) of the present application with food compositions, wherein the level of sodium (NaCl) in the food product compositions was reduced. The level of sodium was reduced by 25%, 50% or 75% compared to food products compositions that were not admixed with flavor composition peptides. The food product compositions comprising the flavor composition peptides were tasted by a panel of trained tasters and the level of saltiness was compared to the control food products.
The peptides pGlu-Val-Leu (identified as “SE-13”), pGlu-Val-Cys (identified as “UE-30”), pGlu-Val-Val (identified as “SE-17”) and pGlu-Cys-Cys (identified as “FE-37”) were tested in cottage cheese, tortilla chips, ketchup, cream of mushroom soup, alfredo sauce, sausage, mixed nuts, peanuts, soy sauce and chicken broth. The level of sodium in the test food products comprising the peptides was reduced by 25% compared to the control food products.

[4] = Chicken Broth, control 860 mg, test 645 mg Na

## [pGlu]-Val [SE-14]
Panelists [1]; 0.1 ppb in 0.2% NaCl
  Mean time needed to return to baseline: 4.6 min
  Mean time needed to return to baseline (min.): 4.6 min
Panelists [1]
  Time needed to return to baseline as the concentration increases: increases slightly overall; also recorded: slight increase overall
Panelists [1]; 0.5 ppb in 0.2% NaCl
  Mean time needed to return to baseline: 4.6 min
  Mean time needed to return to baseline (min.): 4.6 min
Panelists [1]; 1.0 ppb in 0.2% NaCl
  Mean time needed to return to baseline: 3.9 min
  Mean time needed to return to baseline (min.): 3.9 min
Panelists [1]; 10.0 ppb in 0.2% NaCl
  Mean time needed to return to baseline: 5.8 min
  Mean time needed to return to baseline (min.): 5.8 min
Panelists [1]; 50.0 ppb in 0.2% NaCl
  Mean time needed to return to baseline: 6.6 min
  Mean time needed to return to baseline (min.): 6.6 min

## [pGlu]-Val-Cys [UE-30]
Panelists [2]; 1.0 ppb in solution
  Astringent, in-mouth perception: 0.0
  Bitter, in-mouth perception: 0.0
  Metallic, in-mouth perception: 0.0
  Mineral/Flinty, in-mouth perception: 0.5
  Numbing, in-mouth perception: 0.0
  Salt, in-mouth perception: 1.9
  Sour, in-mouth perception: 0.0
  Sweet, in-mouth perception: 0.0
  Umami FF, in-mouth perception: 0.5
  Umami/Brothy, in-mouth perception: 0.7
Panelists [2]; 1.0 to 1000.0 ppb, in-mouth
  Level of the remaining aromatics, basic tastes and chemical feeling factors with increasing concentration: does not increase
  Salt perception level as the concentration increases: increases slightly; also recorded: Shows increases
  Umami feeling factor as the concentration increases: increases slightly; also recorded: Shows increases
  Umami/brothy aromatic as the concentration increases: increases slightly; also recorded: Shows increases
Panelists [2]; 10.0 ppb in solution
  Astringent, in-mouth perception: 0.0
  Bitter, in-mouth perception: 0.0
  Metallic, in-mouth perception: 0.0
  Mineral/Flinty, in-mouth perception: 0.7
  Numbing, in-mouth perception: 0.0
  Salt, in-mouth perception: 2.1
  Sour, in-mouth perception: 0.0
  Sweet, in-mouth perception: 0.0
  Umami FF, in-mouth perception: 1.9
  Umami/Brothy, in-mouth perception: 1.0
Panelists [2]; 100.0 ppb in solution
  Astringent, in-mouth perception: 0.0
  Bitter, in-mouth perception: 0.0
  Metallic, in-mouth perception: 0.0
  Mineral/Flinty, in-mouth perception: 0.7
  Numbing, in-mouth perception: 0.0
  Salt, in-mouth perception: 2.6
  Sour, in-mouth perception: 0.0
  Sweet, in-mouth perception: 0.0
  Umami FF, in-mouth perception: 2.7
  Umami/Brothy, in-mouth perception: 1.8
Panelists [2]; 1000.0 ppb in solution
  Astringent, in-mouth perception: 0.0
  Bitter, in-mouth perception: 0.0
  Metallic, in-mouth perception: 0.0
  Mineral/Flinty, in-mouth perception: 0.6
  Numbing, in-mouth perception: 0.0
  Salt, in-mouth perception: 3.4
  Sour, in-mouth perception: 0.0
  Sweet, in-mouth perception: 0.0
  Umami FF, in-mouth perception: 3.5
  Umami/Brothy, in-mouth perception: 2.5

## [pGlu]-Val-Leu [SE-13]
Panelists [1]; 0.1 ppb in 0.2% NaCl
  Mean time needed to return to baseline: 7.6 min
  Mean time needed to return to baseline (min.): 7.6 min
Panelists [1]
  Time needed to return to baseline as the concentration increases: increases notably from 0.1 ppb to 0.5 ppb and from 10.0 ppb to 40.0 ppb; also recorded: does not necessarily increase
Panelists [1]; listed as pGlu-Val-Leu
  Time needed to return to baseline as the concentration increases: did not necessarily increase
Panelists [1]; 0.5 ppb in 0.2% NaCl
  Mean time needed to return to baseline: 9.5 min
  Mean time needed to return to baseline (min.): 9.5 min
Panelists [1]; 1.0 ppb in 0.2% NaCl
  Mean time needed to return to baseline: 8.7 min
  Mean time needed to return to baseline (min.): 8.7 min
Panelists [1]; 10.0 ppb in 0.2% NaCl
  Mean time needed to return to baseline: 8.6 min
  Mean time needed to return to baseline (min.): 8.6 min
Panelists [1]; 40.0 ppb in 0.2% NaCl
  Mean time needed to return to baseline: 13.1 min
  Mean time needed to return to baseline (min.): 13.1 min
Panelists [1]; overall
  Time needed to return to baseline, comparison of SE-13, SE-14 and SE-17: greatest
[3]
  Salty taste compared to control with 100% NaCl: saltier than the control
Panel of trained tasters; [4]
  Saltiness compared to control: Test samples saltier than
Panel of trained tasters; Cottage Cheese, test 262 mg Na
  Saltiness/flavor compared to control: Test samples notably less
Panel of trained tasters; Ketchup, test 120 mg Na
  Saltiness compared to SE-17: SE-13 more salty than
Panel of trained tasters; Tortilla Chips, control 103 mg, test 77 mg Na
  Saltiness compared to control: Test samples saltier than

## [pGlu]-Val-Val [SE-17]
Panelists [1]; 0.1 ppb in 0.2% NaCl
  Mean time needed to return to baseline: 3.4 min
  Mean time needed to return to baseline (min.): 3.4 min
Panelists [1]
  Time needed to return to baseline as the concentration increases: No definitive trends are seen; also recorded: no definitive trend
Panelists [1]; 0.5 ppb in 0.2% NaCl
  Mean time needed to return to baseline: 5.6 min
  Mean time needed to return to baseline (min.): 5.6 min
Panelists [1]; 1.0 ppb in 0.2% NaCl
  Mean time needed to return to baseline: 5.0 min
  Mean time needed to return to baseline (min.): 5.0 min
Panelists [1]; 10.0 ppb in 0.2% NaCl
  Mean time needed to return to baseline: 5.0 min
  Mean time needed to return to baseline (min.): 5.0 min
Panelists [1]; 50.0 ppb in 0.2% NaCl
  Mean time needed to return to baseline: 4.1 min
  Mean time needed to return to baseline (min.): 4.1 min
Panel of trained tasters; [4]
  Saltiness compared to control: Test samples saltier than
Panel of trained tasters; Cottage Cheese, test 262 mg Na
  Saltiness/flavor compared to control: Test samples notably less
Panel of trained tasters; Cottage Cheese, test 262 mg Na, compared to SE-13 and SE-13 + UE-30
  Preference among test samples: combination preferred

Reference: US10856562B2, “Flavor composition and edible compositions containing same” (MARS, INCORPORATED, priority 2013, dated 2020)
